Test results reported in patent US7666901B2, “Analogs of 17-hydroxywortmannin as PI3K inhibitors” (Wyeth, priority 2004, dated 2010).
≈ marks a conversion by molar mass, not a printed value. Where two headings read alike, the source gives them in different places.

What was measured:
[1] = system: HER2/Neu-overexpressing MDA361-DYT2 breast tumor cells; test: Tumor cell growth assay, HKI-272 and combination, MDA361-DYT2; assay type: cell-based, human; details: in vitro and in vivo
Method: Human tumor cell are all obtained from ATCC, and are cultured using standard cell culture methods. Cells are plated in 96-well culture plates at 1000 to 3000 cells per well. One day following plating, cells are treated with various doses of PI3K inhibitor Compound 4 or Compound 5 alone or with a low constant dose of MEK inhibitor 2-(2-chloro-4-iodoanilino)-N-(cycloprorylmethoxy-3,4-difluobenzamide) (1 μg/ml) or UO126 (5 μg/ml). UO126 is also known as 1,4-diamino-2,3-dicyano-1,4-bis[2-aminophenylthio]butadiene. In some experiments, cells are treated alone with various doses of the MEK inhibitor (2-(2-chloro-4-iodoanilino)-N-(cycloprorylmethoxy-3,4-difluobenzamide)), or HER2/neu inhibitor HKI-272, or mTOR inhibitor CCI-779, or with a low constant dose of Compound 4 (0.1 μg/ml). […] Three days after drug treatment, viable cell densities are determined by metabolic conversion (by viable cells) of the dye MTS, an established cell proliferation assay. […] The MTS assay results are read in a 96-well plate reader by measuring absorbance at 490 nm. The effect of each treatment is calculated as percent of control growth relative to the vehicle DMSO-treated cells grown in the same culture plate. […]

[2] = system: phosphorylated Her2/Neu, ERK and AKT pathway markers in MDA361-DYT2; test: Western blot analysis of pathway markers, MDA361-DYT2; assay type: cell-based, human; details: 0.1 μg/ml
Method: Cells are plated in 6-well culture plates. 24 hr later, cells are treated with indicated single agents or combined agents for 16 hr in full growth media. Protein lysates are prepared for Western blot analysis as previously described in Yu, K., et al., Endocr. Relat. Cancer. 2001 September :8(3) 249-58.

Human TOR = biological target: T1, Human TOR (Homo sapiens, UniProt P42345); test: Human TOR (mTOR) kinase assay, DELFIA format; assay type: biochemical
T1 construct: FLAG
Procedure, shortened: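 Purified FLAG-TOR (800 ng/mL) phosphorylates His6-S6K ([…]) with […] ATP in Hepes pH 7.4 buffer containing MnCl2, 2 h at room temperature. Phospho-Thr389 S6K detected by DELFIA using Europium-labelled anti-P(T389)-p70S6K antibody; enzyme inhibition calculated from signal.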

PI3K [3] = system: T2, PI3K; test: Fluorescence polarization assay for PI3K; assay type: biochemical; details: for PI3K FP IC50: Table 1; for IC50: Table 2
T2 construct: PI3K FP IC50
Procedure, shortened: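 PI3K was preincubated with compound at 1% DMSO final, then reacted with PIP2/ATP substrate for 30-60 min. The reaction was stopped with a detector mix giving 10 nM red probe and 70 nM GST-GRP. Fluorescence polarization (mP, Tamra filters) was read 30-90 min later and IC50 determined.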

[4] = system: phosphor-AKT (S473) in Rat1 cells; test: Rat1-IGF1 assay (IGF-1 induced phospho-AKT immunoblot); assay type: cell-based, rat; details: for IC50: Rattus norvegicus
Procedure, shortened: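 After 24 h serum starvation, Rat1 cells got vehicle or varying 17-HWT concentrations for 2 hours, then IGF-1 (100 ng/mL) for 30 minutes. Lysates immunoblotted for phospho-AKT (S473) and total AKT.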

[5] = system: LNCaP (human prostate carcinoma); test: Cell proliferation (MTS) assay, LNCaP; assay type: cell-based; details: three days treatment; for IC50: Homo sapiens, LNCaP, 72 h
Procedure, shortened: (§1)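 Cells plated at about 3000 per well in RPMI-1640/10% FBS were dosed with compound one day later. Viability was read by MTS conversion (absorbance 490 nm, 1–2 h) three days after treatment began. Effect is expressed as percent of vehicle-treated growth on the same plate.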

[6] = system: MDA468 (human breast cancer cell); test: Cell proliferation (MTS) assay, MDA468; assay type: cell-based; details: three days treatment; for IC50: Homo sapiens, 72 h
Procedure, shortened: as §1

[7] = system: MDA435 (human breast adenocarcinoma); test: Cell proliferation (MTS) assay, MDA435; assay type: cell-based; details: three days treatment; for IC50: Homo sapiens, MDA435, 72 h
Procedure, shortened: as §1

[8] = system: DU145 (human prostate carcinoma/lymphocytic leukemia); test: Cell proliferation (MTS) assay, DU145; assay type: cell-based; details: three days treatment; for IC50: Homo sapiens, DU-145, 72 h
Procedure, shortened: as §1

PI3K [9] = details: cited from earlier work
C3H mammary model = details: cited from earlier work

Molecule | IC50 (PI3K [3]) [nM] | IC50 (Human TOR; Table 2) [nM] | IC50 ([4]; Table 2) [µg/mL] | IC50 ([5]; Table 2) [µg/mL] | IC50 ([6]; Table 2) [µg/mL] | IC50 ([7]; Table 2) [µg/mL] | IC50 ([8]; Table 2) [µg/mL] | TOR IC50 (Human TOR; Table 1) [µg/mL] | PI3K FP IC50 (PI3K [3]) [µg/mL] | Rat1-IGF1 IC50 ([4]; Table 1) [µg/mL] | LNCaP IC50 ([5]; Table 1) [µg/mL] | MDA468 IC50 ([6]; Table 1) [µg/mL] | MDA435 IC50 ([7]; Table 1) [µg/mL] | DU145 IC50 ([8]; Table 1) [µg/mL] | further results
CCOc1cc2ncc(C#N)c(Nc3ccc(OCc4ccccn4)c(Cl)c3)c2cc1NC(=O)/C=C/CN(C)C [HKI-272, (E)-N-{4-[3-chloro-4-(2-pyridinylmethoxy)anilino]-3-cyano-7-ethoxy-6-quinolinyl}-4-(dimethylamino)-2-butenamide] |  |  |  |  |  |  |  |  |  |  |  |  |  |  | sensitivity of MDA361-DYT2 to single agent [1]: resistant; effect on AKT pathway markers [2]: little effect; phosphorylated forms of Her2/Neu and ERK [2]: completely inhibited
COC[C@H]1OC(=O)c2coc3c2[C@@]1(C)C1=C(C3=O)[C@@H]2CC[C@H](O)[C@@]2(C)C[C@H]1OC(C)=O [Compound 17-OH-Wort, 17β-Hydroxywortmannin, reference compound] | 2 |  |  |  |  |  |  | 0.076 | 0.0034 | <0.01 | 1 | 2.3 | >15 | 15 | TOR IC50 (Human TOR; Table 2): 0.059 µg/mL; Rat1-IGF1 IC50 ([4]; Table 2): <0.01 µg/mL; LNCaP IC50 ([5]; Table 2): 0.3 µg/mL; MDA468 IC50 ([6]; Table 2): 3 µg/mL; MDA435 IC50 ([7]; Table 2): 20 µg/mL; DU145 IC50 ([8]; Table 2): 13 µg/mL; increase in activity relative to wortmannin (PI3K [9]; PI3K, literature): 10 fold; IC50 (PI3K [9]; literature value): 0.5 nM; toxicity (C3H mammary model; dose of 1.0 mg/kg): toxicity; antitumor activity (C3H mammary model; dose of 0.5 (mg/kg)): no inhibition
(1E,4S,4aR,5R,6aS,7S)-7,11-dihydroxy-4-(methoxymethyl)-4a,6a-dimethyl-1-{[methyl(1-methylpyrrolidin-3-yl)amino]methylene}-2,10-dioxo-1,2,4,4a,5,6,6a,7,8,9,9a,10-dodecahydroindeno[4,5-h]isochromen-5-yl acetate [Compound 6] |  |  |  |  |  |  |  | 0.66 | 0.07 | 0.02 | 0.55 | 2.01 | >15 | 13 | 

Further lines, with some results ahead:

IC50 (PI3K [3]) [nM] | IC50 (Human TOR; Table 2) [nM] | IC50 ([4]; Table 2) [µg/mL] | IC50 ([5]; Table 2) [µg/mL] | IC50 ([6]; Table 2) [µg/mL] | IC50 ([7]; Table 2) [µg/mL] | IC50 ([8]; Table 2) [µg/mL] | Molecule | TOR IC50 (Human TOR; Table 1) [µg/mL] | PI3K FP IC50 (PI3K [3]) [µg/mL] | Rat1-IGF1 IC50 ([4]; Table 1) [µg/mL] | LNCaP IC50 ([5]; Table 1) [µg/mL] | MDA468 IC50 ([6]; Table 1) [µg/mL] | MDA435 IC50 ([7]; Table 1) [µg/mL] | DU145 IC50 ([8]; Table 1) [µg/mL] | further results
78 | 619 | 0.1 (≈ 0.159 µM) | 0.5 (≈ 0.794 µM) | 4.3 (≈ 6.83 µM) | 18 (≈ 28.6 µM) | 20 (≈ 31.8 µM) | COCC1OC(=O)C(=CN2CCN(CCN3CCOCC3)CC2)C2=C(O)C(=O)C3=C(C(OC(C)=O)CC4(C)C(O)CCC34)C21C (stereo not shown) [Compound 33, Acetic acid 6,17-dihydroxy-1-methoxymethyl-10,13-dimethyl-4-[4-(2-morpholin-4-yl-ethyl)-piperazin-1-ylmethylene]-3,7-dioxo-1,3,4,7,10,11,12,13,14,15,16,17-dodecahydro-2-oxa-cyclopenta[a]phenanthren-11-yl ester] |  |  |  |  |  |  |  | 
918 | > 18700 | > 0.1 | 0.07 (≈ 0.131 µM) | 1.2 (≈ 2.24 µM) | 6 (≈ 11.2 µM) | 1.7 (≈ 3.17 µM) | COCC1OC(=O)C(=CN(CCO)CCO)C2=C(O)C(=O)C3=C(C(OC(C)=O)CC4(C)C(O)CCC34)C21C (stereo not shown) [Compound 19, Acetic acid 4-{[bis-(2-hydroxy-ethyl)-amino]-methylene}-6,17-dihydroxy-1-methoxymethyl-10,13-dimethyl-3,7-dioxo-1,3,4,7,10,11,12,13,14,15,16,17-dodecahydro-2-oxa-cyclopenta[a]phenanthren-11-yl ester] |  |  |  |  |  |  |  | 
9 | 1280 | 0.1 (≈ 0.188 µM) | 0.4 (≈ 0.751 µM) | 4 (≈ 7.51 µM) | 23 (≈ 43.2 µM) | 21 (≈ 39.4 µM) | COCC1OC(=O)C(=CN(C)CCN(C)C)C2=C(O)C(=O)C3=C(C(OC(C)=O)CC4(C)C(O)CCC34)C21C (stereo not shown) [Compound 31, Acetic acid 4-{[(2-dimethylamino-ethyl)-methyl-amino]-methylene}-6,17-dihydroxy-1-methoxymethyl-10,13-dimethyl-3,7-dioxo-1,3,4,7,10,11,12,13,14,15,16,17-dodecahydro-2-oxa-cyclopenta[a]phenanthren-11-yl ester] |  |  |  |  |  |  |  | 
